In article PMC11740121 (ACS Omega, 2025):

Target: PRMT5 (protein arginine methyltransferase 5) (Homo sapiens, UniProt O14744)
Test: SPR with immobilized PRMT5 N-terminal TIM barrel
Type: binding

PRMT5 (protein arginine methyltransferase 5), sequence (O14744 1-292): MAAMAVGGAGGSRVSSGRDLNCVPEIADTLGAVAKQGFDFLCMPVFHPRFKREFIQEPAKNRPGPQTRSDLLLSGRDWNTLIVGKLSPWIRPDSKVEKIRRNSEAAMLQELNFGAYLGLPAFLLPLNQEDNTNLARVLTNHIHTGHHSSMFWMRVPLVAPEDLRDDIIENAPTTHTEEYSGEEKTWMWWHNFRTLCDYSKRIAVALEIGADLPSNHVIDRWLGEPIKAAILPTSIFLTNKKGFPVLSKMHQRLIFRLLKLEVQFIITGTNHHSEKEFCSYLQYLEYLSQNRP

Kd: 21.5 µM
SMILES: O=C(Cc1csc(-c2ccc(C(F)(F)F)cc2)n1)Nc1ccc2oc(=O)[nH]c2c1 [Z319334062]
